# Test results taken from patent US5952511A, “Indolin-2-one derivatives” (Chugai Seiyaku Kabushiki Kaisha, priority 1993, dated 1999).
# Key:
# [1] = molecular target: T1, gastrin receptors (guinea pig gastric glands) (Cavia porcellus, UniProt H0VZC5); experiment: Gastrin Receptor Binding Test in Guinea Pig Gastric Glands (Test Example 1); parameters: species or system guinea pig (Hartley, male); conditions: inhibition of specific 125I-gastrin I human binding (22.5 pM), 25° C., 45 min
# T1 construct: The gastric glands were isolated from the tissue with a pipette; from tissue; host or cells: isolated gastric glands from gastric mucosa of Hartley male guinea pigs
# T1 sequence (H0VZC5 1-426): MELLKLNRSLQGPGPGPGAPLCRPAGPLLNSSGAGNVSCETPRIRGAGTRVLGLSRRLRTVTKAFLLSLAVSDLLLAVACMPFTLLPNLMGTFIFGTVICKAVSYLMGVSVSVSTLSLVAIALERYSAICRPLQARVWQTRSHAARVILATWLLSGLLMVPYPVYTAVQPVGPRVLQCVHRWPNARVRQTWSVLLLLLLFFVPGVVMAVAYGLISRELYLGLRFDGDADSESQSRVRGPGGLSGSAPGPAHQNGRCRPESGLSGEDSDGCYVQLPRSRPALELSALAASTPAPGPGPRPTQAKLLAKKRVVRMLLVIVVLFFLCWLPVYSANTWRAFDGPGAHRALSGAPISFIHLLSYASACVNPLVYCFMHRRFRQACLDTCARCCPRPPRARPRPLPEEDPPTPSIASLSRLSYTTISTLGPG
# Method: Gastrin Receptor Binding Test in Guinea Pig Gastric Glands
# Preparation of Gastric Glands:
# Guinea pig gastric glands were prepared according to the method of Chang, et al., Biochem. Biophys. Res. Commun., 134, 895 (1986). The gastric mucosa of a Hartley male guinea pig was peeled off. After washing, the mucosa was minced with scissors in buffer A (Eagle's MEM containing 2 mM L-glutamine and 25 mM HEPES; pH 7.4). After washing, the minced tissue was incubated in buffer A containing 0.025% collagenase, 0.01% soy bean trypsin inhibitor, and 0.1% BSA at 37° C. for 60 minutes under 95% O2 and 5% CO2. The gastric glands were isolated from the tissue with a pipette, washed twice with buffer A, and filtered through a mesh. Then, the gastric glands were obtained by centrifugation.
# Guinea pig gastric glands were resuspended in buffer B (Hank's solution containing 10 mM HEPES and 0.2% BSA; pH 7.4) (10 ml of buffer B per guinea pig).
# To 200 μl of the suspension containing the resuspended isolated gastric glands were added 20 μl of ^125 I-gastrin I human (final concentration: 22.5 pM). Then, 10 μl of a test compound or a solvent (for total binding) or 10 μM Pentagastrin (for nonspecific binding), and buffer B was added there to make a total volume of 1 ml. The reaction mixture was incubated at 25° C. for 45 minutes and then centrifuged at 12000 g. The supernatant was removed by suction, and the radioactivity of the isolated gastric glands was measured with a gamma-counter.
# The specific binding of gastrin to gastrin receptors was obtained from a difference between the total binding and the nonspecific binding. The IC50 of the test compound in inhibition of specific binding was calculated.
# gastric acid secretion = experiment: Inhibitory Activity on Gastric Acid Secretion in Pylorus Ligated Rats (Test Example 2); type: in vivo, rat (Sprague-Dawley, male); conditions: Rattus norvegicus, intraduodenal, i.d., 4 h
# Method: Inhibitory Activity on Gastric Acid Secretion in Pyrolus Ligated Rats
# Sprague-Dawley male rats weighing about 200 g were deprived of food for 24 hours while allowed water ad libitum. The abdomen was opened under anesthesia with ethyl ether, the pyrolus ligated, and the abdomen closed. The rats were deprived of food and water for 4 hours until they were surcrified with ethyl ether. The stomach was removed, and gastric juice was collected and measured. The gastric juice was centrifuged at 3000 rpm, and the supernatant was titrated up to pH 7.0 with 0.1N NaOH solution to obtain the acidity of the gastric juice. The amount of the gastric acid output was calculated by multiplying the gastric juice volume by the acidity, and the percent inhibition of acid secretion was obtained according to the following equation. A test compound, suspended in a 3% gum arabic solution, was administered intraduodenally at a dose of 2 ml/kg immediately after the pyrolus ligation.
# Inhibition (%)=[(Average amount of gastric acid output in control group--Average amount of gastric acid output in test group)/Average amount of gastric acid secreted […]]×100
Structure (SMILES),IC50 [1],inhibition in vivo at 10 mg/kg (gastric acid secretion),inhibition in vivo at 3 mg/kg (gastric acid secretion; 3 mg/kg)
"CCOC(CN1C(=O)C(CC(=O)Nc2ccc(C)cc2)(NC(=O)Nc2ccc(OC)cc2)c2ccccc21)OCC (racemic) [Example 79, (RS)-1-(2,2-Diethoxyethyl)-3-(N'-(4-methoxyphenyl)ureido)-3-((4-methylphenyl)aminocarbonylmethyl)indolin-2-one]",1.9 nM,47%,–
"CCOC(CN1C(=O)C(CC(=O)Nc2ccc(C)cc2)(NC(=O)Nc2cccc(OC)c2)c2ccccc21)OCC (racemic) [Example 85, (RS)-1-(2,2-Diethoxyethyl)-3-(N'-(3-methoxyphenyl)ureido)-3-((4-methylphenyl)aminocarbonylmethyl)indolin-2-one]",1.2 nM,72%,–
"CCOC(CN1C(=O)C(CC(=O)Nc2ccc(Cl)cc2)(NC(=O)Nc2ccc(Cl)cc2)c2ccccc21)OCC (racemic) [Example 168, (RS)-3-((4-Chlorophenyl)aminocarbonylmethyl)-3-(N'-(4-chlorophenyl)ureido)-1-(2,2-diethoxyethyl)indolin-2-one]",2.6 nM,61%,–
"CCOC(CN1C(=O)C(CC(=O)Nc2ccc(N(C)C(=O)C(F)(F)F)cc2)(NC(=O)Nc2ccc(C)cc2)c2ccccc21)OCC (racemic) [Example 131, (RS)-1-(2,2-Diethoxyethyl) 3-((4-(N-trifluoromethylcarbonyl-N-methylamino)phenyl)aminocarbonylmethyl)-3-(N'-(4-methylphenyl)ureido)indolin-2-one]",23 nM,65%,–
"CCOC(CN1C(=O)C(CC(=O)Nc2ccc(C)cc2)(NC(=O)Nc2cccc(F)c2)c2ccccc21)OCC (racemic) [Example 94, (RS)-1-(2,2-Diethoxyethyl)-3-(N'-(3-fluorophenyl)ureido)-3-((4-methylphenyl)aminocarbonylmethyl)indolin-2-one]",3.5 nM,70%,–
"CCOC(CN1C(=O)C(NC(=O)Nc2ccc(F)cc2)(NC(=O)Nc2ccc(F)cc2)c2ccccc21)OCC [Example 14, 1-(2,2-Diethoxyethyl)-3,3-bis(N'-(4-fluorophenyl)ureido)indolin-2-one]",2.2 nM,49%,–
"CCOC(CN1C(=O)C(CC(=O)Nc2ccc(Cl)cc2)(NC(=O)Nc2cccc(OC)c2)c2ccccc21)OCC (racemic) [Example 149, (RS)-3-((4-Chlorophenyl)aminocarbonylmethyl)-1-(2,2-diethoxyethyl)-3-(N'-(3-methoxyphenyl)ureido)indolin-2-one]",0.93 nM,69%,–
"CCOC(CN1C(=O)C(CC(=O)Nc2ccc(N)cc2)(NC(=O)Nc2ccc(C)cc2)c2ccccc21)OCC (racemic) [Example 125, (RS)-3-((4-Aminophenyl)aminocarbonylmethy)-1-(2,2-diethoxyethyl)-3-(N'-(4-methylphenyl)ureido)indolin-2-one]",2.5 nM,54%,–
"CCOC(CN1C(=O)C(CC(=O)Nc2ccc(F)cc2)(NC(=O)Nc2ccc(F)cc2)c2ccccc21)OCC (racemic) [Example 170, (RS)-1-(2,2-Diethoxyethyl)-3-((4-fluorophenyl)aminocarbonylmethyl)-3-(N'-(4-fluorophenyl)ureido)indolin-2-one]",5.1 nM,63%,–
"CCOC(CN1C(=O)C(CC(=O)Nc2ccc(C)cc2)(NC(=O)Nc2cccc(OC)c2)c2ccccc21)OCC (single isomer, unassigned; (+)) [Example 188, (+)-1-(2,2-Diethoxyethyl)-3-(4-methylphenyl)aminocarbonylmethyl-3-(N'-(3-methoxyphenyl)ureido)indolin-2-one]",0.35 nM,–,76%
"CCOC(CN1C(=O)C(CC(=O)Nc2ccc(C)cc2)(NC(=O)Nc2cccc(Cl)c2)c2ccccc21)OCC (racemic) [Example 89, (RS)-3-(N'-(3-Chlorophenyl)ureido)-1-(2,2-diethoxyethyl)-3-((4-methylphenyl)aminocarbonylmethyl)indolin-2-one]",5.8 nM,65%,–
"CCOC(CN1C(=O)C(CC(=O)Nc2ccc(F)cc2)(NC(=O)Nc2ccc(C)cc2)c2ccccc21)OCC (racemic) [Example 124, (RS)-1-(2,2-Diethoxyethyl)-3-((4-fluorophenyl)aminocarbonylmethyl)-3-(N'-(4-methylphenyl)ureido)indolin-2-one]",5.3 nM,54%,–
"CCOC(CN1C(=O)C(CC(=O)Nc2ccc(C)cc2)(NC(=O)Nc2ccc(F)cc2)c2ccccc21)OCC (racemic) [Example 82, (RS)-1-(2,2-Diethoxyethyl)-3-(N'-(4-fluorophenyl)ureido)-3-((4-methylphenyl)aminocarbonylmethyl)indolin-2-one]",6.2 nM,56%,–
"CCOC(CN1C(=O)C(CC(=O)Nc2ccc(C)cc2)(NC(=O)Nc2cccc(C)c2)c2ccccc21)OCC (racemic) [Example 81, (RS)-1-(2,2-Diethoxyethyl)-3-((4-methylphenyl)aminocarbonylmethyl)-3-(N'-(3-methylphenyl)ureido)indolin-2-one]",1.6 nM,59%,–
"CCOC(CN1C(=O)C(NC(=O)Nc2ccc(C)cc2)(NC(=O)Nc2ccc(C)cc2)c2ccccc21)OCC [Example 10, 1-(2,2-Diethoxyethyl)-3,3-bis(N'-(4-methylphenyl)ureido)indolin-2-one]",2.5 nM,59%,–
"CCOC(CN1C(=O)C(CC(=O)Nc2ccc(F)cc2)(NC(=O)Nc2cccc(OC)c2)c2ccccc21)OCC (racemic) [Example 154, (RS)-1-(2,2-Diethoxyethyl)-3-((4-fluorophenyl)aminocarbonylmethyl)-3-(N'-(3-methoxyphenyl)ureido)indolin-2-one]",1 nM,59%,–
"CCOC(CN1C(=O)C(CC(=O)Nc2ncccn2)(NC(=O)Nc2ccc(C)cc2)c2ccccc21)OCC (racemic) [Example 132, (RS)-1-(2,2-Diethoxyethyl)-3-(N'-(4-methylphenyl)ureido)-3-((2-pyrimidinyl)aminocarbonylmethyl)indolin-2-one]",8.9 nM,52%,–
"CCOC(CN1C(=O)C(CC(=O)Nc2ccc(C)cc2)(NC(=O)Nc2ccccc2)c2ccccc21)OCC (racemic) [Example 84, (RS)-1-(2,2-Diethoxyethyl)-3-((4-methylphenyl)aminocarbonylmethyl)-3-(N'-phenylureido)indolin-2-one]",3.4 nM,68%,–
"CCOC(CN1C(=O)C(CC(=O)Nc2cccc(OC)c2)(NC(=O)Nc2cccc(OC)c2)c2ccccc21)OCC (racemic) [Example 151, (RS)-1-(2,2-Diethoxyethyl)-3-((3-methoxyphenyl)aminocarbonylmethyl)-3-(N'-(3-methoxyphenyl)ureido)indolin-2-one]",2.9 nM,62%,–
"CCOC(CN1C(=O)C(CC(=O)Nc2ccc(Cl)cc2)(NC(=O)Nc2ccc(OC)cc2)c2ccccc21)OCC (racemic) [Example 169, (RS)-3-(-(4-Chlorophenyl)aminocarbonylmethyl)-1-(2,2-diethoxyethyl)-3-(N'-(4-methoxyphenyl)ureido)indolin-2-one]",1.9 nM,52%,–
